Data reported in patent publication US20260184710A1, “CASITAS B-LINEAGE LYMPHOMA PROTOONCOGENE B (CBL-B) DEGRADING COMPOUNDS AND ASSOCIATED METHODS OF USE” (Arvinas Operations, Inc., priority 2022, published 2026).

How the values were obtained:
Cbl-b [1] = target: T1, Cbl-b (Homo sapiens, UniProt Q13191); assay: Cbl-b Degradation Method A (FACS, anti-Cbl-b antibody staining); format: cell-based; details: Cbl-b-HiBit KI Jurkat Cells, incubated at least 20 hours; for DC50: half maximal degradation, read-out: Cbl-b Degredation Method A IC50; for Dmax: Jurkat, maximum degradation observed, read-out: Cbl-b Degredation Method A Dmax (%)
T1 construct: Cbl-b-HiBit KI Jurkat Cells were purchased from Promega; host or cells: Cbl-b-HiBiT knock-in Jurkat cells
T1 sequence (Q13191 whole entry): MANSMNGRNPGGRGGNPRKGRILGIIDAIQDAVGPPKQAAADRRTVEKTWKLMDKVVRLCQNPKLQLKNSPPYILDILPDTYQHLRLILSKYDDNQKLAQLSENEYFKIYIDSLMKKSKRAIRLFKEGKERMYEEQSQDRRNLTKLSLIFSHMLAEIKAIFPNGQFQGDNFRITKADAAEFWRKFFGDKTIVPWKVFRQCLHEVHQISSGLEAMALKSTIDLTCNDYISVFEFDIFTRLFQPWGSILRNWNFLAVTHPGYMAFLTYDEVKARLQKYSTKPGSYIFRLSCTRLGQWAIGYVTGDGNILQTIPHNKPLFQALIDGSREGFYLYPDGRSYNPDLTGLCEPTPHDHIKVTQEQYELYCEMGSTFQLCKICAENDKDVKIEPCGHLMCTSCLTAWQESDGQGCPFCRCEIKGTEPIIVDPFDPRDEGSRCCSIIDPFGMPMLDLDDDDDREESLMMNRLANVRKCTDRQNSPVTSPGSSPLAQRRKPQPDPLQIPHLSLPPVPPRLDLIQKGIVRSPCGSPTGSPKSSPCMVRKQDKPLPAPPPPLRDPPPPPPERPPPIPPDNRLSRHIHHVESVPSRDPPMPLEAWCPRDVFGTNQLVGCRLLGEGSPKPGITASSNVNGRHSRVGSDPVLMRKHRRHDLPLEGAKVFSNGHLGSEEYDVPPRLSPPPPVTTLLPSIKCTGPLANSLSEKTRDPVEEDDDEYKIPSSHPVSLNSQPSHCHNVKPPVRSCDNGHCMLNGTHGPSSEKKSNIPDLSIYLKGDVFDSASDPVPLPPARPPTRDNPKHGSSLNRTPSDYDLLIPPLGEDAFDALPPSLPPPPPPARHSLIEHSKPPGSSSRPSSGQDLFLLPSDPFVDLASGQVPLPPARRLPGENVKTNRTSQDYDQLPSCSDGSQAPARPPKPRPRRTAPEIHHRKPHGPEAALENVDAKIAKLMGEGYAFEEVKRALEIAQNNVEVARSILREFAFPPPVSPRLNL
How it was run: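 Cbl-b-HiBit KI Jurkat cells treated with compound for at least 20 h at 37 °C, then fixed, permeabilized and stained with anti-Cbl-b antibody plus anti-rabbit AF488 secondary. Cbl-b levels read by FACS; DC50 and Dmax (percent of control) derived.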

Cbl-b [2] = target: T1, Cbl-b; assay: Cbl-b Degradation Method B (Nano-Glo HiBiT lytic detection); format: cell-based; details: Cbl-b-HiBit KI Jurkat Cells, incubated at least 6-24 hours; for DC50: half maximal degradation, read-out: Cbl-b Degredation Method B IC50; for Dmax / Cbl-b Degredation Method B Dmax (%): maximum degradation observed; for Dmax: read-out: Cbl-b Degredation Method B Dmax (%)
How it was run: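 Cbl-b-HiBiT knock-in Jurkat cells (20,000/well) were treated after ~24 h plating with an 11-point 1:3 series for 6-24 h at 37° C. Remaining Cbl-b measured by Nano-Glo HiBiT lytic luminescence. DC50 and Dmax expressed as % of control.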

SMILES	DC50 (Cbl-b [1]) [nM]	Dmax (Cbl-b [1]) [%]	DC50 (Cbl-b [2]) [nM]	Dmax (Cbl-b [2]) [%]	Cbl-b Degredation Method B Dmax (%) (Cbl-b [2])
Cn1cnnc1C[C@]1(c2cccc(N3Cc4c(cc(N5CC6(CCN(CC7CCN(c8ccc9c(c8)C(=O)N(C8CCC(=O)NC8=O)C9=O)CC7)CC6)C5)cc4C(F)(F)F)C3=O)c2)C[C@@H](C#N)C1 (stereo partly drawn) [Example 137, (1s,3s)-3-(3-{6-[7-({1-[2-(2,6-dioxopiperidin-3-yl)-1,3-dioxo-2,3-dihydro-1H-isoindol-5-yl]piperidin-4-yl}methyl)-2,7-diazaspiro[3.5]nonan-2-yl]-1-oxo-4-(trifluoromethyl)-2,3-dihydro-1H-isoindol-2-yl}phenyl)-3-[(4-methyl-4H-1,2,4-triazol-3-yl)methyl]cyclobutane-1-carbonitrile]	5 to 50	35 to 70	5 to 50	35 to 70	
Cn1cnnc1CC1(c2cccc(N3Cc4c(cc(CN5CCC(CC6CN(c7ccc8c(c7)C(=O)N(C7CCC(=O)NC7=O)C8=O)C6)CC5)cc4C(F)(F)F)C3=O)c2)COC1 (stereo not drawn) [Example 79, 2-(2,6-dioxopiperidin-3-yl)-5-{3-[(1-{[2-(3-{3-[(4-methyl-4H-1,2,4-triazol-3-yl)methyl]oxetan-3-yl}phenyl)-3-oxo-7-(trifluoromethyl)-2,3-dihydro-1H-isoindol-5-yl]methyl}piperidin-4-yl)methyl]azetidin-1-yl}-2,3-dihydro-1H-isoindole-1,3-dione]	> 500		> 500		
Cn1cnnc1CC1(c2cccc(N3Cc4c(cc(N5CC6(CCN(CC7CN(c8ccc9c(c8)C(=O)N(C8CCC(=O)NC8=O)C9=O)C7)CC6)C5)cc4C(F)(F)F)C3=O)c2)COC1 (stereo not drawn) [Example 132, 2-(2,6-dioxopiperidin-3-yl)-5-[3-({2-[2-(3-{3-[(4-methyl-4H-1,2,4-triazol-3-yl)methyl]oxetan-3-yl}phenyl)-3-oxo-7-(trifluoromethyl)-2,3-dihydro-1H-isoindol-5-yl]-2,7-diazaspiro[3.5]nonan-7-yl}methyl)azetidin-1-yl]-2,3-dihydro-1H-isoindole-1,3-dione]	5 to 50	35 to 70	< 5	35 to 70	

The next lines start with the values.

DC50 (Cbl-b [1]) [nM]	Dmax (Cbl-b [1]) [%]	DC50 (Cbl-b [2]) [nM]	Dmax (Cbl-b [2]) [%]	Cbl-b Degredation Method B Dmax (%) (Cbl-b [2])	SMILES
50 to 500	> 70	5 to 50		C (C ≤ 35)	CC(C)n1c(=O)n(C2CCC(=O)NC2=O)c2cccc(N3CCC(O[C@H]4CC[C@H](CN5CCN(Cc6cc7c(c(C(F)(F)F)c6)CN(c6cccc([C@]8(Cc9nncn9C)C[C@@H](C#N)C8)c6)C7=O)C6(COC6)C5)CC4)CC3)c21 (stereo partly drawn) [Example 322, (1r,3r)-3-[(4-methyl-4H-1,2,4-triazol-3-yl)methyl]-3-(3-{1-oxo-6-[(8-{[(1r,4r)-4-({1-[1-(2,6-dioxopiperidin-3-yl)-2-oxo-3-(propan-2-yl)-2,3-dihydro-1H-1,3-benzodiazol-4-yl]piperidin-4-yl}oxy)cyclohexyl]methyl}-2-oxa-5,8-diazaspiro[3.5]nonan-5-yl)methyl]-4-(trifluoromethyl)-2,3-dihydro-1H-isoindol-2-yl}phenyl)cyclobutane-1-carbonitrile]
50 to 500	35 to 70	< 5		C (C ≤ 35)	CC(C)n1c(=O)n(C2CCC(=O)NC2=O)c2cccc(N3CCC(O[C@H]4CC[C@H](CN5CCN(Cc6cc7c(c(C(F)(F)F)c6)CN(c6cccc([C@]8(Cc9nncn9C)C[C@H](C#N)C8)c6)C7=O)CC[C@@H]5C)CC4)CC3)c21 (stereo partly drawn) [Example 326, (1r,3r)-3-[3-(6-{[(5S)-5-methyl-4-{[(1r,4r)-4-({1-[1-(2,6-dioxopiperidin-3-yl)-2-oxo-3-(propan-2-yl)-2,3-dihydro-1H-1,3-benzodiazol-4-yl]piperidin-4-yl}oxy)cyclohexyl]methyl}-1,4-diazepan-1-yl]methyl}-1-oxo-4-(trifluoromethyl)-2,3-dihydro-1H-isoindol-2-yl)phenyl]-3-[(4-methyl-4H-1,2,4-triazol-3-yl)methyl]cyclobutane-1-carbonitrile]
